# Assays:
# platelet aggregation [1] = experiment: Ex vivo ADP-stimulated platelet aggregation in baboon PRP; settings: animal 2; ADP 10 μm; 0, 1 and 2 hours
# Procedure: At one- and two-hour time points, template bleeding times were measured, and blood samples were drawn to assess the hematology aggregation studies. Platelet aggregation studies were performed as described in Example V using ADP as the stimulus.
# In addition, platelet aggregation studies were conducted on PRP derived from the second animal. Whole blood was drawn at three time points (0, 1 and 2 hours) of both control and experimental shunts.
# [2] = system: canine platelet aggregation; experiment: In vitro canine platelet aggregation stimulated by ADP, arachidonic acid or collagen; assay type: cell-based, dog; settings: 10 μm ADP, […] arachidonic acid or 9.6 micrograms/ml collagen; PRP; read-out: IC50 against canine platelet aggregation
# Procedure: (§1) Platelet counts and ex vivo aggregation studies were performed one hour before and 1, 3, and 5 hours after application of anodal direct current.
# Epinephrine (550 nM) was used to prime platelets before stimulation with arachidonic acid. Peptides were added in 1% dilutions to the PRP solutions.
# coronary thrombosis = experiment: Electrically induced canine coronary thrombosis, time to full occlusion; assay type: in vivo, dog; settings: 10 mg/kg bolus + 10 mg/kg/hr infusion, intra-atrial
# Procedure: Male mongrel dogs weighing 14 to 20 kg were selected based on proper aggregation of their platelets in response to arachidonic acid, collagen, and adenosine disphosphate (ADP) and based on similar weights and hemodynamic properties.
# Before surgery, the animals were anesthetized with sodium pentobarbital (30 mg/kg, i.v.) and then intubated and ventilated on room air with positive pressure using a respirator (Harvard Apparatus, S. Natick, Mass.) at a volume of 30 ml/kg and a frequency of 12 breaths/min. Surgery, performed under aseptic conditions, was begun with the placement of cannulae into the left carotid artery and jugular vein for monitoring arterial blood pressure (Statham P23 pressure transducer, Gould, Inc., Cardiovascular Products, Oxnard, Calif.) and administering intravenous fluids.
# The heart was exposed via a left thoracotomy through the 5th intercostal space. A 2-cm segment of the left circumflex coronary artery (LCCA) was isolated from surrounding tissue by blunt dissection. […] The intra-coronary electrode was constructed by attaching a 25-gauge hypodermic needle tip to a 30-gauge Teflon-insulated silver-coated copper wire. The mechanical occluder was constructed of stainless steel in a C shape with a Teflon screw (2 mm diameter) on top. It was adjusted to control vessel circumference and decrease the reactive hyperemic flow due to a 10-sec (full) occlusion by 50-70% without affecting basal coronary blood flow (FIG. 1c). A monopolar epicardial electrode was sutured to the surface of the ventricle in the region of LCCA distribution to monitor ischemic changes in the electrocardiogram (ECG). The left atrium was cannulated with polythylene tubing for administration of the peptide. Continuous recordings of blood pressure, limb lead II ECG, epicardial electrogram, and mean and phasic LCCA blood flow were obtained on a Model 7 polygraph (Grass Instrument Co., Quincy, Mass.).
# One hour after the completion of surgery, a 100 micro-amp continuous anodal direct current delivered from a 9 volt nickel-cadmium battery was applied to the intimal surface of the LCCA. The anode of the battery was in series with a 250,000 ohm potentiometer and the intraluminal coronary artery electrode. The electric circuit was completed by placing the cathode in a subcutaneous site. Electrical stimulation was applied for three hours. At the conclusion of each experiment, the heart was fibrillated electrically and quickly removed, and the LCCA was dissected free as far as possible to verify the position of the implanted anodal electrode.
# (§2) Animals were randomly assigned to two treatment groups: vehicle control (i.e., normal saline) or RGD peptides at various concentrations. Peptides were administered intra-atrially in both bolus and continuous injections. […] A continuous infusion of the same peptide was then started immediately after completion of this initial injection. Animals that received a 5 mg/kg bolus also received a 5 mg/kg/hr infusion, whereas animals that received a 10 mg/kg bolus also received a 10 mg/kg/hr infusion. The anti-thrombotic effects of the peptides were monitored until 30 minutes after the occurrence of a persistent, occlusive thrombus or five hours after the initiation of electrical stimulation (whichever resulted first). If an occlusive thrombus had not developed within four hours after the initiation of current, the peptide infusion was stopped.
# Coronary thrombosis was quantified as the time to full occlusion. The effects of the various peptide treatments on coronary thrombosis is illustrated in FIG. 4.
# [3] = system: Gore-tex vascular graft thrombosis; experiment: Platelet and fibrinogen uptake by Gore-tex grafts in baboon ex vivo shunt
# Procedure: Adult male baboons (weighing 16 to 25 kg) were used in these studies. These were sedated with ketamine hydrochloride (200 to 250 mg intramuscular injection) and maintained under anesthesia with sodium pentobarbital (50 to 75 mg administered intravenously as necessary).
# Twenty-four hours before the ex vivo shunt was established, platelets were isolated from 500 ml of blood from the test animal and labelled with ca. 500 microcuries of indium-111 oxine (Medi+Physics, Emeryville, Calif.), which irreversibly and specifically binds to platelets with an efficiency of 50%. Immediately after labelling, these platelets were then injected back into the animal and allowed to circulate for 24 hours. Immediately before the start of the study, fibrinogen that had been isolated from the animal and labelled with iodine-131 (DuPont Nuclear, Boston, Mass.) was also injected back into the animal. Also at this time, baseline determinations of the clotting and template bleeding times were made, and blood samples were drawn for hematology studies.
# To establish the ex vivo shunt, the femoral artery and vein were percutaneously cannulated with introducer catheters (KMA Inc., Mansfield, Mass.). The catheters were then connected to medical-grade, heparin-coatedsilastic tubing (2.59 mm internal diameter, (Extracorporeal Medical Specialties, Inc., King of Prussia, Pa.). […] Finally, a 5 cm-long test segment of a 4 mm (internal diameter) vascular graft was inserted at the apex of the circuit. The graft used in these studies was Gore-tex (expanded polytetrafluoroethylene, (W. L. Gore and Associates, Inc., Flagstaff, Ariz.). An electromagnetic flow probe was then inserted into the tubing circuit to measure blood flow, which was maintained at 100 ml/min. by varying the resistance imported by a partially occluding screw clamp that was distal to the probe. Finally, a 5 cm-long test segment of a 4 mm (internal diameter) vascular graft was inserted at the apex of the circuit. The graft used in these studies was Gore-tex (expanded polytetrafluoroethylene, W. L. Gore and Associates, Inc., Flagstaff, Ariz.).
# Platelet deposition onto the grafts was monitored by dynamic scanning with a gamma camera (Sigma 400, Ohio Nuclear, Inc., Sohon, Ohio), which detects the gamma radiation emitted by the indium^111 -labelled platelets. Once the circuit was in place, the animal was placed under this camera, and blood flow was initiated. Scans were then taken at the rate of one frame per two minutes for two hours. The data from these scans were collected on a dedicated Digital MDA computer (Maynard, Mass.). […]
# platelet aggregation [4] = experiment: Ex vivo platelet aggregation after peptide injection in canine coronary thrombosis model; set-up: species or system dog; settings: 10 mg/kg
# Procedure: For all ex vivo studies (see FIGS. 3a, 3b1, 3b2, 3b3, 3c1 and 3c2), control aggregation values were standardized to the percentages of light transmission observed in PRP and PPP samples (0% and 100%, respectively).
# as §2, §1
# Platelet aggregation was also determined ex vivo at one, three, and five hours after current application. For these studies, arachidonic acid, or collagen was again used to stimulate the platelets.
# The average aggregation values determined in these studies for all of the peptide treatments are depicted in FIGS. 3a, 3b1, 3b2, 3b3, 3c1, and 3c2. […] The control responses in these studies were 70-80% of maximum. […] Here the control responses were 55-80% of maximum.
# [5] = animal 1, two bolus IV injections of 10 mg/kg
# [6] = animal 2, 10 mg/kg IV bolus + 10 mg/kg/hr infusion for two hours
substance,measurement,setting,value
GPenGHRGDLRCA,ex vivo platelet response to ADP,platelet aggregation [1],completely unresponsive
same,IC50,[2],15 to 30 µM
same,time to full occlusion,coronary thrombosis,did not significantly influence
same,reduction in I131-fibrinogen uptake by graft,[3]; [5],79%
same,reduction in In111-platelet uptake by graft,[3]; [5],90%
same,reduction in labelled fibrinogen uptake by graft,[3]; [6],78%
same,reduction in labelled platelet uptake by graft,[3]; [6],84%
same,ex vivo inhibition of AA-stimulated aggregation relative to control,platelet aggregation [4]; all three time points,43-70%
same,ex vivo inhibition of collagen-stimulated aggregation relative to control,platelet aggregation [4]; all three time points,12-50%
same,ex vivo inhibition of ADP-stimulated aggregation,"platelet aggregation [4]; one, three, five hours",substantially inhibited
